Measurements taken from article PMC3517478 (BMC Neurology, 2012).

Target: T1, human α1S267I-GlyR expressed in HEK 293 cells (Homo sapiens, UniProt P23415, S295I)
T1 sequence (P23415 29-457 S295I): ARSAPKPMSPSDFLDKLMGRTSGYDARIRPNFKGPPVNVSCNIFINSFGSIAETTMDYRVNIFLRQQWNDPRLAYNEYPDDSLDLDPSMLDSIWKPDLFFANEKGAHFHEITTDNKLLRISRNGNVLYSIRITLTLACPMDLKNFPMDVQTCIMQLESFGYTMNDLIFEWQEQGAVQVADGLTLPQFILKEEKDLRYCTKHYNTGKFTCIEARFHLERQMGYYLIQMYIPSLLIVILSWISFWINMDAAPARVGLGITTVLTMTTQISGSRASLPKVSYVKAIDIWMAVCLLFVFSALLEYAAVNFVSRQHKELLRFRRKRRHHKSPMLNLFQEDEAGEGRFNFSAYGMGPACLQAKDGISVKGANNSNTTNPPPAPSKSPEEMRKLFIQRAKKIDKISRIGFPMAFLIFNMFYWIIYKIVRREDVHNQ
Conditions: S267I
Text: Human α1-, α1R271Q-, α1R271L-, α1R271K and α1S267I-GlyR subunits were transiently transfected into human embryonic kidney cells (HEK 293, ATCC, Manassas, USA). The wild type α1-GlyR -cDNA was cloned in pCIS2 (Invitrogen, San Diego, USA) vector and provided by Prof. Heinrich Betz (Max-Planck-Institut für Hirnforschung, Frankfurt am Main, Germany). For the plasmid cDNA of the mutated α1R271Q-, α1R271L-, α1R271K- and α1S267I-GlyR the eukaryotic expression vector pcDNA1amp (Invitrogen, San Diego, USA), under the control of cytomegalovirus promoter, was used. For site-directed mutagenesis, single stranded template cDNA was synthesized from M13 origin of replication and the mutations of arginine residue (R) at position 271 to glutamine (R271Q), leucine (R271L) or lysine (R271K) and mutation of serine residue (S) at position 267 to isoleucine (S267I) were generated using standard procedures. […] Wild type and mutated α1-GlyR subunits efficiently form homomeric receptors in heterologous expression systems.
HEK 293 cells were cultured in medium containing HAMS’F-12 (Biochrom, Berlin, Germany), supplemented with 10% fetal bovine serum (FBS, Biochrom, Berlin, Germany), 100 U ml^–1 penicillin and 100μgml^–1 streptomycin (Gibco BRL, Life Technologies, Karlsruhe, Germany) at 37°C in a 5% CO2/ 95% air incubator. For transfection cells were suspended in a buffer containing 50mM K2HPO4 (Fluka BioChemika, Seelze, Germany), 20mMK-acetate (Sigma-Aldrich, Taufkirchen, Germany) and 25mM MgSO4 (Sigma-Aldrich, Taufkirchen, Germany) at pH 7.35. To visualize transfected cells, they were co-transfected with cDNA encoding for enhanced green fluorescent protein (EGFP) contained in the pEGFP-N1 expression vector (Clontech, Palo Alto, USA). The corresponding cDNA (5μg for the GlyR and 2.5μg for EGFP) was added to 400μl of the cell suspension and the mixture was rapidly transferred into the electroporation cuvette. For transfection we used an electroporation device by EquiBio (Kent, UK) and a 4mm aluminum electrode electroporation cuvette (Peqlab, Erlangen, Germany).
The phenol derivative 4-chloropropofol ([…]) was provided as pure substance by Prof. Paul M. O’Neill (University of Liverpool, England), prepared as light-protected 1M stock solution in ethanol (EtOH, J.T.Baker, Griesheim, Germany) and stored in glass vessels at −20°C.
Drug-containing vials were vigorously vortexed for 30min. Patch electrodes were filled with an intracellular solution of [mM] KCl 140, MgCl2 2, EGTA 11, HEPES 10, glucose 11, CaCl2 1 with pH 7.3, adjusted with 1 M KOH and a bath solution contained [mM] NaCl 162, KCl 5.31, NaHPO4 0.85, KH2PO4 0.22, HEPES 15, glucose 6.11, pH 7.4 adjusted with 1 M NaOH. Osmolarity of both solutions was set at 280–300 mOsmol.
Whole-cell experiments were performed at a holding potential of −30 mV with a mean seal resistance of 1 GΩ. […] A fast liquid filament switch technique was used for the application of the agonist, presented in pulses of 2 s duration every 20 s. The liquid filament switch technique is able to exchange the solution passing an outside-out patch or small whole-cells within 1–2 ms. We calculated flow rate of background solution through the chamber with 3,4 ml/min corresponding to 4% of maximal pump rate. With regard to the chamber volume of 100 μl the exchange solution time within the chamber was assessed to approximately […], dependent on cell size accordingly. Piezo-switch and small diameter capillary (ID 0.15 mm) within the measurement chamber promoted the millisecond solution exchange. […] The induced current (I) by this saturating control solution was defined as Icontrol. […] The stability of the seal was controlled during the complete experiment via control of the seal resistance. A variation of 10-20% of the basic value was regarded as tolerable.

NCC(=O)O [glycine]
Current amplitude [% of mean WT current amplitude] ± SEM: 68.2±68% | nH ± SEM (Hill coefficient), glycine activation: 1.1±0.2 | Rise time ± SEM (10-90% of Imax, monoexponential fit): 6.6 ± 2.5 ms | Mean current amplitude ± SEM (saturating glycine 1 mM): 1122±765 pA
